Measurements taken from PubChem BioAssay (NCI).
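The compound was tested at five concentrations on cells cultured in 96-well plates, with a 48-hour exposure period. GI50 = concentration required for 50% inhibition of growth. At the TGI there is no net growth.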

Legend:
Assay in all cases: NCI tumour cell line growth inhibition, 48 h
786-0 renal = test system: 786-0 renal
A498 renal = test system: A498 renal
A549 NSCLC = test system: A549 NSCLC
ACHN renal = test system: ACHN renal
BT-549 breast = test system: BT-549 breast
CAKI-1 renal = test system: CAKI-1 renal
CCRF-CEM leukemia = test system: CCRF-CEM leukemia
COLO 205 colon = test system: COLO 205 colon
DU-145 prostate = test system: DU-145 prostate
EKVX NSCLC = test system: EKVX NSCLC
HCC-2998 colon = test system: HCC-2998 colon
HCT-116 colon = test system: HCT-116 colon
HCT-15 colon = test system: HCT-15 colon
HL-60(TB) leukemia = test system: HL-60(TB) leukemia
HOP-62 NSCLC = test system: HOP-62 NSCLC
HOP-92 NSCLC = test system: HOP-92 NSCLC
HS 578T breast = test system: HS 578T breast
HT29 colon = test system: HT29 colon
IGROV1 ovarian = test system: IGROV1 ovarian
K-562 leukemia = test system: K-562 leukemia
KM12 colon = test system: KM12 colon
LOX IMVI melanoma = test system: LOX IMVI melanoma
M14 melanoma = test system: M14 melanoma
MALME-3M melanoma = test system: MALME-3M melanoma
MCF7 breast = test system: MCF7 breast
MDA-MB-231 breast = test system: MDA-MB-231 breast
MDA-MB-435 = test system: MDA-MB-435
MDA-MB-468 breast = test system: MDA-MB-468 breast
MOLT-4 leukemia = test system: MOLT-4 leukemia
NCI-H226 lung = test system: NCI-H226 lung
NCI-H23 lung = test system: NCI-H23 lung
NCI-H460 lung = test system: NCI-H460 lung
NCI-H522 lung = test system: NCI-H522 lung
NCI/ADR-RES ovarian = test system: NCI/ADR-RES ovarian
OVCAR-3 ovarian = test system: OVCAR-3 ovarian
OVCAR-4 ovarian = test system: OVCAR-4 ovarian
OVCAR-5 ovarian = test system: OVCAR-5 ovarian
OVCAR-8 ovarian = test system: OVCAR-8 ovarian
PC-3 prostate = test system: PC-3 prostate
RPMI-8226 leukemia = test system: RPMI-8226 leukemia
RXF 393 renal = test system: RXF 393 renal
SF-268 CNS = test system: SF-268 CNS
SF-295 CNS = test system: SF-295 CNS
SF-539 CNS = test system: SF-539 CNS
SK-MEL-2 melanoma = test system: SK-MEL-2 melanoma
SK-MEL-28 melanoma = test system: SK-MEL-28 melanoma
SK-MEL-5 melanoma = test system: SK-MEL-5 melanoma
SK-OV-3 ovarian = test system: SK-OV-3 ovarian
SN12C renal = test system: SN12C renal
SNB-19 CNS = test system: SNB-19 CNS
SNB-75 CNS = test system: SNB-75 CNS
SR leukemia = test system: SR leukemia
SW-620 colon = test system: SW-620 colon
T-47D breast = test system: T-47D breast
TK-10 renal = test system: TK-10 renal
U251 CNS = test system: U251 CNS
UACC-257 melanoma = test system: UACC-257 melanoma
UACC-62 melanoma = test system: UACC-62 melanoma
UO-31 renal = test system: UO-31 renal

`O=C(N/N=C/c1ccsc1)c1[nH]c2ccc(Br)cc2c1-c1ccccc1` gave a GI50 (786-0 renal) of 509 nM, a TGI (786-0 renal) of 17700 nM and a GI50 (A498 renal) of 19500 nM. For the same compound, the TGI (A498 renal) was 46500 nM, the GI50 (A549 NSCLC) was 460 nM and the TGI (A549 NSCLC) was > 100000 nM. For the same compound, the GI50 (ACHN renal) was 585 nM, the TGI (ACHN renal) was 27700 nM and the GI50 (BT-549 breast) was 317 nM. For the same compound, the TGI (BT-549 breast) was 1950 nM, the GI50 (CAKI-1 renal) was 315 nM and the TGI (CAKI-1 renal) was 25000 nM. The GI50 (CCRF-CEM leukemia) was 228 nM, the TGI (CCRF-CEM leukemia) was 21700 nM and the GI50 (COLO 205 colon) was 353 nM. It also gave a TGI (COLO 205 colon) of 1970 nM, a GI50 (DU-145 prostate) of 435 nM and a TGI (DU-145 prostate) of 32900 nM. It also gave a GI50 (EKVX NSCLC) of 872 nM, a TGI (EKVX NSCLC) of 29300 nM and a GI50 (HCC-2998 colon) of 399 nM. It also gave a TGI (HCC-2998 colon) of 13000 nM, a GI50 (HCT-116 colon) of 190 nM and a TGI (HCT-116 colon) of 4410 nM. For the same compound, the GI50 (HCT-15 colon) was 256 nM, the TGI (HCT-15 colon) was 12800 nM and the GI50 (HL-60(TB) leukemia) was 199 nM. The TGI (HL-60(TB) leukemia) was 656 nM, the GI50 (HOP-62 NSCLC) was 512 nM and the TGI (HOP-62 NSCLC) was 18100 nM. For the same compound, the GI50 (HOP-92 NSCLC) was 2440 nM, the TGI (HOP-92 NSCLC) was 25000 nM and the GI50 (HS 578T breast) was 202 nM. The TGI (HS 578T breast) was 13200 nM, the GI50 (HT29 colon) was 272 nM and the TGI (HT29 colon) was 4750 nM. The GI50 (IGROV1 ovarian) was 600 nM, the TGI (IGROV1 ovarian) was 15600 nM and the GI50 (K-562 leukemia) was 103 nM. For the same compound, the TGI (K-562 leukemia) was > 44000 nM, the GI50 (KM12 colon) was 327 nM and the TGI (KM12 colon) was 14100 nM. It also gave a GI50 (LOX IMVI melanoma) of 217 nM, a TGI (LOX IMVI melanoma) of 13300 nM and a GI50 (M14 melanoma) of 267 nM. For the same compound, the TGI (M14 melanoma) was 13100 nM, the GI50 (MALME-3M melanoma) was 6990 nM and the TGI (MALME-3M melanoma) was 26100 nM. The GI50 (MCF7 breast) was 132 nM, the TGI (MCF7 breast) was 13400 nM and the GI50 (MDA-MB-231 breast) was 792 nM. It also gave a TGI (MDA-MB-231 breast) of 13100 nM, a GI50 (MDA-MB-435) of 76.4 nM and a TGI (MDA-MB-435) of 525 nM. For the same compound, the GI50 (MDA-MB-468 breast) was 255 nM, the TGI (MDA-MB-468 breast) was 3890 nM and the GI50 (MOLT-4 leukemia) was 386 nM. The TGI (MOLT-4 leukemia) was 18400 nM, the GI50 (NCI-H226 lung) was 1750 nM and the TGI (NCI-H226 lung) was 27600 nM. It also gave a GI50 (NCI-H23 lung) of 696 nM, a TGI (NCI-H23 lung) of 18900 nM and a GI50 (NCI-H460 lung) of 156 nM. It also gave a TGI (NCI-H460 lung) of 10600 nM, a GI50 (NCI-H522 lung) of 163 nM and a TGI (NCI-H522 lung) of 699 nM. It also gave a GI50 (NCI/ADR-RES ovarian) of 173 nM, a TGI (NCI/ADR-RES ovarian) of 549 nM and a GI50 (OVCAR-3 ovarian) of 202 nM. For the same compound, the TGI (OVCAR-3 ovarian) was 12600 nM, the GI50 (OVCAR-4 ovarian) was 6100 nM and the TGI (OVCAR-4 ovarian) was > 66600 nM. The GI50 (OVCAR-5 ovarian) was 563 nM, the TGI (OVCAR-5 ovarian) was 22500 nM and the GI50 (OVCAR-8 ovarian) was 313 nM. The TGI (OVCAR-8 ovarian) was 10300 nM, the GI50 (PC-3 prostate) was 612 nM and the TGI (PC-3 prostate) was 24000 nM. It also gave a GI50 (RPMI-8226 leukemia) of 236 nM, a TGI (RPMI-8226 leukemia) of 16600 nM and a GI50 (RXF 393 renal) of 287 nM. The TGI (RXF 393 renal) was 26700 nM, the GI50 (SF-268 CNS) was 817 nM and the TGI (SF-268 CNS) was 17900 nM. It also gave a GI50 (SF-295 CNS) of 189 nM, a TGI (SF-295 CNS) of 13800 nM and a GI50 (SF-539 CNS) of 190 nM. The TGI (SF-539 CNS) was 943 nM, the GI50 (SK-MEL-2 melanoma) was 764 nM and the TGI (SK-MEL-2 melanoma) was 20000 nM. The GI50 (SK-MEL-28 melanoma) was 4190 nM, the TGI (SK-MEL-28 melanoma) was 22600 nM and the GI50 (SK-MEL-5 melanoma) was 260 nM. The TGI (SK-MEL-5 melanoma) was 1830 nM, the GI50 (SK-OV-3 ovarian) was 2050 nM and the TGI (SK-OV-3 ovarian) was 27200 nM. The GI50 (SN12C renal) was 473 nM, the TGI (SN12C renal) was 12500 nM and the GI50 (SNB-19 CNS) was 1840 nM. For the same compound, the TGI (SNB-19 CNS) was 66400 nM, the GI50 (SNB-75 CNS) was 234 nM and the TGI (SNB-75 CNS) was 21500 nM. The GI50 (SR leukemia) was 255 nM, the TGI (SR leukemia) was 63500 nM and the GI50 (SW-620 colon) was 204 nM. It also gave a TGI (SW-620 colon) of 19100 nM, a GI50 (T-47D breast) of 3120 nM and a TGI (T-47D breast) of 48500 nM. For the same compound, the GI50 (TK-10 renal) was 13500 nM, the TGI (TK-10 renal) was 85000 nM and the GI50 (U251 CNS) was 724 nM. It also gave a TGI (U251 CNS) of 18900 nM, a GI50 (UACC-257 melanoma) of 6930 nM and a TGI (UACC-257 melanoma) of 41300 nM. The GI50 (UACC-62 melanoma) was 299 nM, the TGI (UACC-62 melanoma) was 16000 nM and the GI50 (UO-31 renal) was 578 nM. For the same compound, the TGI (UO-31 renal) was 24200 nM.
